According to patent US9630961B2, “Arginine methyltransferase inhibitors and uses thereof” (Epizyme, Inc., priority 2013, dated 2017):

How the values were obtained:
PRMT6 = biological target: T1, PRMT6 (Homo sapiens, UniProt Q96LA8); experiment: PRMT6 Biochemical Assay (3H-SAM Flashplate, peptide substrate); details: 30 min preincubation, room temperature
T1 construct: Flag-PRMT6-His; made in house; host or cells: HEK 293F cells (BacMam virus)
Description: S-adenosylmethionine (SAM), S-adenosylhomocysteine (SAH), bicine, Tween20, dimethylsulfoxide (DMSO), bovine skin gelatin (BSG), sodium butyrate and Tris(2-carboxyethyl)phosphine hydrochloride solution (TCEP) were purchased from Sigma-Aldrich at the highest level of purity possible. ^3H-SAM was purchase from American Radiolabeled Chemicals with a specific activity of 80 Ci/mmol. 384-well streptavidin Flashplates were purchased from PerkinElmer.
Peptide representative of human histone H4 residues 36-50 was synthesized with an N-terminal linker-affinity tag motif and a C-terminal amide cap by 21st Century Biochemicals. The peptide was purified by high-performance liquid chromatography (HPLC) to greater than 95% purity and confirmed by liquid chromatography mass spectrometry (LC-MS). The sequence was Biot-Ahx-[…]-amide and contained a monomethylated lysine at position 44 (SEQ ID NO.:5).
Full-length human PRMT6 (NM_018137.2) transcript clone was amplified from an HEK 293 cDNA library, incorporating a flanking 5′ sequence encoding a FLAG tag ([…]) (SEQ ID NO.:6) fused directly to Ser 2 of PRMT6 and a 3′ sequence encoding a hexa His sequence (HHHHHH) fused directly to Asp 375. The amplified gene was subcloned into pFastBacMam (Viva Biotech).
Recombinant baculovirus were generated according to Bac-to-Bac kit instructions (Life Technologies). […] Infections were carried out at 37° C. for 48 hours, harvested by centrifugation, and stored at −80° C. for purification.
Column was washed with 20 mM imidazole in the same buffer and Flag-PRMT6-His was eluted with 150 mM imidazole. Pooled fractions were dialysed against buffer Ni-A and further purified by anti-flag M2 affinity chromatography. Flag-PRMT6-His was eluted with 200 ug/ml FLAG peptide in the same buffer. Pooled fractions were dialysed in 20 mM Tris, 150 mM NaCl, 10% glycerol and 5 mM β-mercaptoethanol, pH 7.8. The purity of recovered protein was 95%.
General Procedure for PRMT6 Enzyme Assays on Peptide Substrates.
The assays were all performed in a buffer consisting of 20 mM Bicine (pH=7.6), 1 mM TCEP, 0.005% BSG, and 0.002% Tween 20, prepared on the day of use. Compounds in 100% DMSO (1 ul) were spotted into a polypropylene 384-well V-bottom plates (Greiner) using a Platemate Plus outfitted with a 384-channel head (Thermo Scientific). DMSO (1 ul) was added to Columns 11, 12, 23, 24, rows A-H for the maximum signal control and 1 ul of SAH, a known product and inhibitor of PRMT6, was added to columns 11, 12, 23, 24, rows I-P for the minimum signal control. A cocktail (40 ul) containing the PRMT6 enzyme was added by Multidrop Combi (Thermo-Fisher). The compounds were allowed to incubate with PRMT6 for 30 min at room temperature, then a cocktail (10 ul) containing SAM and peptide was added to initiate the reaction (final volume=51 ul). The final concentrations of the components were as follows: PRMT6 was 1 nM, ^3H-SAM was 200 nM, non-radiolabeled SAM was 250 nM, peptide was 75 nM, SAH in the minimum signal control wells was 1 mM, and the DMSO concentration was 2%. The assays were stopped by the addition of non-radiolabeled SAM (10 ul) to a final concentration of 400 uM, which dilutes the ^3H-SAM to a level where its incorporation into the peptide substrate is no longer detectable. 50 ul of the reaction in the 384-well polypropylene plate was then transferred to a 384-well Flashplate and the biotinylated peptides were allowed to bind to the streptavidin surface for at least 1 hour before being washed once with 0.1% Tween20 in a Biotek ELx405 plate washer. The plates were then read in a PerkinElmer TopCount plate reader to measure the quantity of ^3H-labeled peptide bound to the Flashplate surface, measured as disintegrations per minute (dpm) or alternatively, referred to as counts per minute (cpm).
Where dpm=disintegrations per minute, cmpd=signal in assay well, and min and max are the respective minimum and maximum signal controls. […]

[1] = test system: mono-methyl arginine in RKO cells; experiment: RKO Methylation Assay, In Cell Western for mono-methyl arginine and DNA content; type: cell-based; details: Homo sapiens, 72 hours, percent activation of mono-methyl arginine signal
Description: RKO Methylation Assay RKO adherent cells were purchased from ATCC (American Type Culture Collection), Manassas, Va., USA. DMEM/Glutamax medium, penicillin-streptomycin, heat inactivated fetal bovine serum, 0.05% trypsin and D-PBS were purchased from Life Technologies, Grand Island, N.Y., USA. Odyssey blocking buffer, 800CW goat anti-rabbit IgG (H+L) antibody, and Licor Odyssey infrared scanner were purchased from Licor Biosciences, Lincoln, Nebr., USA. Mono-methyl arginine antibody was purchased from Cell Signaling Technology, Danvers, Mass., USA. Methanol was purchased from VWR, Franklin, Mass., USA. 10% Tween 20 was purchased from KPL, Inc., Gaithersburg, Md., USA. DRAQ5 was purchased from Biostatus Limited, Leicestershire, UK. RKO adherent cells were maintained in growth medium (DMEM/Glutamax medium supplemented with 10% v/v heat inactivated fetal bovine serum and 100 units/mL penicillin-streptomycin) and cultured at 37° C. under 5% CO2. Cell Treatment, in Cell Western (ICW) for Detection of Mono-Methyl Arginine and DNA Content. RKO cells were seeded in assay medium at a concentration of 20,000 cells per mL to a poly-D-lysine coated 384 well culture plate (BD Biosciences 356697) with 50 μL per well. Compound (100 nL) from a 96-well source plate was added directly to 384 well cell plate. Plates were incubated at 37° C., 5% CO2 for 72 hours. After three days of incubation, plates were brought to room temperature outside of the incubator for ten minutes and blotted on paper towels to remove cell media. 50 μL of ice cold 100% methanol was added directly to each well and incubated for 30 min at room temperature. After 30 min, plates were transferred to a Biotek EL406 plate washer and washed 2 times with 100 μL per well of wash buffer (IX PBS). Next 60 μL per well of Odyssey blocking buffer (Odyssey Buffer with 0.1% Tween 20 (v/v)) were added to each plate and incubated 1 hour at room temperature. Blocking buffer was removed and 20 μL per well of primary antibody was added (mono-methyl arginine diluted 1:200 in Odyssey buffer with 0.1% Tween 20 (v/v)) and plates were incubated overnight (16 hours) at 4° C. Plates were washed 5 times with 100 μL per well of wash buffer. Next 20 μL per well of secondary antibody was added (1:200 800CW goat anti-rabbit IgG (H+L) antibody, 1:1000 DRAQ5 (Biostatus limited) in Odyssey buffer with 0.1% Tween 20 (v/v)) and incubated for 1 hour at room temperature. The plates were washed 5 times with 100 μL per well wash buffer then 2 times with 100 μL per well of water. Plates were allowed to dry at room temperature then imaged on the Licor Odyssey machine which measures integrated intensity at 700 nm and 800 nm wavelengths. Both 700 and 800 channels were scanned. Calculations: First, the ratio for each well was determined by: Each plate included fourteen control wells of DMSO only treatment (minimum activation) as well as fourteen control wells for maximum activation treated with 20 μM of a reference compound. The average of the ratio values for each control type was calculated and used to determine the percent activation for each test well in the plate. Reference compound was serially diluted three-fold in DMSO for a total of nine test concentrations, beginning at 20 μM. Percent activation was determined and EC30 curves were generated using triplicate wells per concentration of compound.

T1 sequence (Q96LA8 with tags, fused parts or gaps): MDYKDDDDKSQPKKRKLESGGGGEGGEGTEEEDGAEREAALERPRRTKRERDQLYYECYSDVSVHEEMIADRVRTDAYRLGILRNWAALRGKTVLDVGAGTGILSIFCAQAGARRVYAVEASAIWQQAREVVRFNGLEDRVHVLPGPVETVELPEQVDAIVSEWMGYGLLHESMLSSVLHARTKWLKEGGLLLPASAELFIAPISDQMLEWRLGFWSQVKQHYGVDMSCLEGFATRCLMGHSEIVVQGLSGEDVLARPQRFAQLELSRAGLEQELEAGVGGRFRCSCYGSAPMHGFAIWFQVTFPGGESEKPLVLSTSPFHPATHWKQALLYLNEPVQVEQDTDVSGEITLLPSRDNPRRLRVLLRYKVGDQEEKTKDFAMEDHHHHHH

IC50 (PRMT6): ≥ 10 µM
SMILES: Cc1nn(C)c(C)c1-c1n[nH]cc1CN(C)CCN [Compound 26]
EC30 [1]: ≥ 12 µM
